Laboratory results: patent publication US6368814B1, “Tricyclic antidepressant derivatives and immunoassay” (Roche Diagnostics Corporation, priority 2000, dated 2002)

How the values were obtained:
[1] = tested on: Monoclonal Antibody TCA 1.1; experiment: Competitive microplate ELISA of imipramine with monoclonal antibody TCA 1.1, wells coated with compound 11 conjugate; type: binding, mouse; conditions: compound 11 coated wells, mAb TCA 1.1
Method: (§1) To analyze the sera for antibody content an ELISA assay using the cognate antigen linked to a different protein (2-carboxypropyl-dihydroamitriptyline-BSA) (compound 11) was used. This antigen was diluted to 5 μg/ml in 0.1 M carbonate buffer, pH 9.5. A volume of 100 μl of this antigen solution was pipetted into wells of a polystyrene 96-well microplate (Costar, Cambridge, Mass.). This was incubated in a plastic bag at 37° C. for 1 hour. The solutions were then removed via suction, and wells were filled with a blocking solution. This consisted of gelatine hydrolysate, 1%, sucrose, 2%, Tris, 0.15 M, pH 7.4 (all reagents from Sigma Chemicals). This was allowed to block the plates for 1 hour at room temperature in plastic bags. Wells were then emptied via suction.
(§2) Dilutions of the sera were prepared by transferring 1 μl to a glass test tube containing 1 ml of phosphate buffered saline, with 0.1% Tween 20 (PBS-T). One hundred and fifty microliters of this dilution of each serum were transferred to wells in Row A of a polyvinyl chloride microplate. All other wells were filled with 100 μl of PBS-T. Serial three-fold dilutions were prepared by transferring 50 μl from Row A to Row B using a multi-channel micropipettor. Mixing was accomplished by re-pipetting 3 times. This was repeated from Row B to C and so on down each column of wells.
(§3) Once all dilutions were prepared, 95 μl of each, starting with Row H, was transferred to the same row in the coated plate. The plate was placed in a Ziploc plastic bag with a damp piece of paper towel and incubated at 37° C. for one hour. Following incubation, the wells were washed four times manually with 300 μl aliquots of PBS-T. A 1:5000 dilution of goat anti-mouse IgG AM-HRP conjugate (Kirkegaard & Perry, Gaithersburg, Md.) was prepared in PBS-T. 100 μl of this was then pipetted into each well, the plate again incubated as above. The plate was then washed 6 times with 300 μl of PBS-T manually, and 100 μl of K-Blue substrate (Neogen, Lexington, Ky.) was added to each well. This was allowed to develop in the dark for 5 minutes, and the reaction was then stopped by the addition of 100 μl of a 2 M phosphoric acid solution. The optical densities of the wells were read using a Molecular Devices Tmax plate reader and a Macintosh computer.
(§4) Hybridoma clone TCA 1.1 was placed into high-density culture and supernatant harvested. This preparation was preserved by the addition of thimerosal to a concentration of 0.02%. Antibody content was evaluated by a titer experiment in which varying dilutions of supernatant were placed into microplate wells coated with a constant amount of antigen conjugate.
(§5) Incubation for 1 hour at 37° C. was followed by the same procedure as for the screening assays. Optical densities were plotted versus the final concentration of imipramine calculated as a molar (gram-molecular weight drug per liter) concentration.

[2] = tested on: Monoclonal Antibody TCA 1.1; experiment: Competitive microplate ELISA of imipramine with monoclonal antibody TCA 1.1, wells coated with compound 27 conjugate; type: binding, mouse; conditions: compound 27 coated wells, mAb TCA 1.1
Method: as §1, §2, §3
This animal received a booster immunization of 100 μg of antigen in incomplete Freund's adjuvant four days before the fusion was performed. The myeloma cell line F0 (ATCC, Manassas, Va.) was used for the fusion. The fusion was performed by the method of de St Groth and Scheidegger, Journal of Immunol. Meth. 35, 1-21, 1980. Ten days later hybrid cell cultures were ready for screening.
as §4, §5

[3] = imipramine final concentration 1.98 × 10^−6 molar
[4] = imipramine final concentration 2.2 × 10^−7 molar
[5] = imipramine final concentration 2.45 × 10^−8 molar
[6] = imipramine final concentration 6.6 × 10^−7 molar
[7] = imipramine final concentration 7.43 × 10^−8 molar
[8] = imipramine final concentration 8.15 × 10^−9 molar

CN(C)CCCN1c2ccccc2CCc2ccccc21 [Imipramine, imipramine]
OD450 compound 11 [1, 3]: 0.056
OD450 compound 11 [1, 4]: 1.35
OD450 compound 11 [1, 5]: 2.325
OD450 compound 11 [1, 6]: 0.541
OD450 compound 11 [1, 7]: 1.95
OD450 compound 11 [1, 8]: 2.6
OD450 compound 27 [2, 3]: 0.037
OD450 compound 27 [2, 4]: 0.276
OD450 compound 27 [2, 5]: 1.719
OD450 compound 27 [2, 6]: 0.038
OD450 compound 27 [2, 7]: 1.124
OD450 compound 27 [2, 8]: 2.434
